# Measured values published in PubChem BioAssay (NCI).
#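 Values below derive from 48-hour exposures of cells grown in 96-well plates, with endpoints linearly interpolated between the two concentrations bracketing the appropriate inhibition level. TGI: concentration producing complete growth inhibition.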
# Experiments:
# Test in all cases: NCI anticancer screen, dose series, 48 h
# 786-0 renal = test system: 786-0 renal
# A498 renal = test system: A498 renal
# A549 NSCLC = test system: A549 NSCLC
# ACHN renal = test system: ACHN renal
# CAKI-1 renal = test system: CAKI-1 renal
# CCRF-CEM leukemia = test system: CCRF-CEM leukemia
# COLO 205 colon = test system: COLO 205 colon
# DLD-1 colon = test system: DLD-1 colon
# DMS 114 small cell lung = test system: DMS 114 small cell lung
# DMS 273 small cell lung = test system: DMS 273 small cell lung
# EKVX NSCLC = test system: EKVX NSCLC
# HCC-2998 colon = test system: HCC-2998 colon
# HCT-116 colon = test system: HCT-116 colon
# HCT-15 colon = test system: HCT-15 colon
# HL-60(TB) leukemia = test system: HL-60(TB) leukemia
# HOP-18 NSCLC = test system: HOP-18 NSCLC
# HOP-62 NSCLC = test system: HOP-62 NSCLC
# HOP-92 NSCLC = test system: HOP-92 NSCLC
# HT29 colon = test system: HT29 colon
# IGROV1 ovarian = test system: IGROV1 ovarian
# K-562 leukemia = test system: K-562 leukemia
# KM12 colon = test system: KM12 colon
# KM20L2 colon = test system: KM20L2 colon
# LOX IMVI melanoma = test system: LOX IMVI melanoma
# LXFL 529 NSCLC = test system: LXFL 529 NSCLC
# M14 melanoma = test system: M14 melanoma
# M19-MEL melanoma = test system: M19-MEL melanoma
# MALME-3M melanoma = test system: MALME-3M melanoma
# MOLT-4 leukemia = test system: MOLT-4 leukemia
# NCI-H226 lung = test system: NCI-H226 lung
# NCI-H23 lung = test system: NCI-H23 lung
# NCI-H460 lung = test system: NCI-H460 lung
# NCI-H522 lung = test system: NCI-H522 lung
# OVCAR-3 ovarian = test system: OVCAR-3 ovarian
# OVCAR-4 ovarian = test system: OVCAR-4 ovarian
# OVCAR-5 ovarian = test system: OVCAR-5 ovarian
# OVCAR-8 ovarian = test system: OVCAR-8 ovarian
# RPMI-8226 leukemia = test system: RPMI-8226 leukemia
# RXF 393 renal = test system: RXF 393 renal
# SF-268 CNS = test system: SF-268 CNS
# SF-295 CNS = test system: SF-295 CNS
# SF-539 CNS = test system: SF-539 CNS
# SK-MEL-2 melanoma = test system: SK-MEL-2 melanoma
# SK-MEL-28 melanoma = test system: SK-MEL-28 melanoma
# SK-MEL-5 melanoma = test system: SK-MEL-5 melanoma
# SK-OV-3 ovarian = test system: SK-OV-3 ovarian
# SN12C renal = test system: SN12C renal
# SNB-19 CNS = test system: SNB-19 CNS
# SNB-75 CNS = test system: SNB-75 CNS
# SNB-78 CNS = test system: SNB-78 CNS
# SR leukemia = test system: SR leukemia
# SW-620 colon = test system: SW-620 colon
# TK-10 renal = test system: TK-10 renal
# U251 CNS = test system: U251 CNS
# UACC-257 melanoma = test system: UACC-257 melanoma
# UACC-62 melanoma = test system: UACC-62 melanoma
# UO-31 renal = test system: UO-31 renal
# XF 498 CNS = test system: XF 498 CNS
structure (smiles),measurement,setting,value
CCCCC(C(=O)CCC(=O)Nc1ccc(Cl)c(Cl)c1)C(=O)C(C)C (stereo unspecified),TGI,786-0 renal,> 100 µM
same,TGI,A498 renal,> 100 µM
same,TGI,A549 NSCLC,> 100 µM
same,TGI,ACHN renal,> 100 µM
same,TGI,CAKI-1 renal,> 100 µM
same,TGI,CCRF-CEM leukemia,> 100 µM
same,TGI,COLO 205 colon,> 100 µM
same,TGI,DLD-1 colon,> 100 µM
same,TGI,DMS 114 small cell lung,> 100 µM
same,TGI,DMS 273 small cell lung,> 100 µM
same,TGI,EKVX NSCLC,> 100 µM
same,TGI,HCC-2998 colon,> 100 µM
same,TGI,HCT-116 colon,> 100 µM
same,TGI,HCT-15 colon,> 100 µM
same,TGI,HL-60(TB) leukemia,> 100 µM
same,TGI,HOP-18 NSCLC,> 100 µM
same,TGI,HOP-62 NSCLC,> 100 µM
same,TGI,HOP-92 NSCLC,> 100 µM
same,TGI,HT29 colon,> 100 µM
same,TGI,IGROV1 ovarian,> 100 µM
same,TGI,K-562 leukemia,> 100 µM
same,TGI,KM12 colon,> 100 µM
same,TGI,KM20L2 colon,> 100 µM
same,TGI,LOX IMVI melanoma,> 100 µM
same,TGI,LXFL 529 NSCLC,> 100 µM
same,TGI,M14 melanoma,> 100 µM
same,TGI,M19-MEL melanoma,> 100 µM
same,TGI,MALME-3M melanoma,> 100 µM
same,TGI,MOLT-4 leukemia,> 100 µM
same,TGI,NCI-H226 lung,> 100 µM
same,TGI,NCI-H23 lung,> 100 µM
same,TGI,NCI-H460 lung,> 100 µM
same,TGI,NCI-H522 lung,> 100 µM
same,TGI,OVCAR-3 ovarian,> 100 µM
same,TGI,OVCAR-4 ovarian,> 100 µM
same,TGI,OVCAR-5 ovarian,88.8 µM
same,TGI,OVCAR-8 ovarian,> 100 µM
same,TGI,RPMI-8226 leukemia,> 100 µM
same,TGI,RXF 393 renal,> 100 µM
same,TGI,SF-268 CNS,> 100 µM
same,TGI,SF-295 CNS,> 100 µM
same,TGI,SF-539 CNS,> 100 µM
same,TGI,SK-MEL-2 melanoma,> 100 µM
same,TGI,SK-MEL-28 melanoma,> 100 µM
same,TGI,SK-MEL-5 melanoma,> 100 µM
same,TGI,SK-OV-3 ovarian,> 100 µM
same,TGI,SN12C renal,> 100 µM
same,TGI,SNB-19 CNS,> 100 µM
same,TGI,SNB-75 CNS,75 µM
same,TGI,SNB-78 CNS,> 100 µM
same,TGI,SR leukemia,> 100 µM
same,TGI,SW-620 colon,> 100 µM
same,TGI,TK-10 renal,> 100 µM
same,TGI,U251 CNS,> 100 µM
same,TGI,UACC-257 melanoma,> 100 µM
same,TGI,UACC-62 melanoma,> 100 µM
same,TGI,UO-31 renal,> 100 µM
O=C1CC2(CCC3=C(O2)c2ccccc2NC(=O)C3)C(=O)c2ccccc2N1 (stereo unspecified),TGI,786-0 renal,> 100 µM
same,TGI,A549 NSCLC,> 100 µM
same,TGI,ACHN renal,> 100 µM
same,TGI,CCRF-CEM leukemia,> 100 µM
same,TGI,COLO 205 colon,> 100 µM
same,TGI,DMS 114 small cell lung,> 100 µM
same,TGI,DMS 273 small cell lung,> 100 µM
same,TGI,EKVX NSCLC,> 100 µM
same,TGI,HCT-116 colon,> 100 µM
same,TGI,HCT-15 colon,> 100 µM
same,TGI,HL-60(TB) leukemia,> 100 µM
same,TGI,HOP-62 NSCLC,> 100 µM
same,TGI,HT29 colon,> 100 µM
same,TGI,IGROV1 ovarian,> 100 µM
same,TGI,K-562 leukemia,> 100 µM
same,TGI,KM12 colon,> 100 µM
same,TGI,KM20L2 colon,> 100 µM
same,TGI,LOX IMVI melanoma,> 100 µM
same,TGI,LXFL 529 NSCLC,> 100 µM
same,TGI,M14 melanoma,> 100 µM
same,TGI,M19-MEL melanoma,> 100 µM
same,TGI,MALME-3M melanoma,> 100 µM
same,TGI,MOLT-4 leukemia,> 100 µM
same,TGI,NCI-H226 lung,> 100 µM
same,TGI,NCI-H23 lung,> 100 µM
same,TGI,NCI-H460 lung,> 100 µM
same,TGI,NCI-H522 lung,> 100 µM
same,TGI,OVCAR-3 ovarian,> 100 µM
same,TGI,OVCAR-4 ovarian,> 100 µM
same,TGI,OVCAR-5 ovarian,> 100 µM
same,TGI,OVCAR-8 ovarian,> 100 µM
same,TGI,RPMI-8226 leukemia,> 100 µM
same,TGI,RXF 393 renal,> 100 µM
same,TGI,SF-268 CNS,> 100 µM
same,TGI,SF-295 CNS,> 100 µM
same,TGI,SF-539 CNS,> 100 µM
same,TGI,SK-MEL-2 melanoma,> 100 µM
same,TGI,SK-MEL-28 melanoma,> 100 µM
same,TGI,SK-MEL-5 melanoma,> 100 µM
same,TGI,SN12C renal,> 100 µM
same,TGI,SNB-19 CNS,> 100 µM
same,TGI,SNB-75 CNS,> 100 µM
same,TGI,SNB-78 CNS,> 100 µM
same,TGI,SW-620 colon,> 100 µM
same,TGI,TK-10 renal,> 100 µM
same,TGI,U251 CNS,> 100 µM
same,TGI,UACC-62 melanoma,> 100 µM
same,TGI,UO-31 renal,> 100 µM
same,TGI,XF 498 CNS,> 100 µM
